# Test results from PubChem BioAssay (NCI).
#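 Results reflect a 48-hour exposure of cells in 96-well plates to compound at five concentrations. GI50 is the concentration that inhibits growth by half. TGI: total growth inhibition.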 *1 amine or outer side, *2 acyl side, *3 side chain or, on linkers, in order; H or OH if unused. Where a SMILES comes first, the peptide text is derived from it. [ ]: non-standard residue; d: D form. The star is where a group is joined. ξ: configuration not given here. X11 = CCC(=O)CC(O)CC(C)CC(N[*:1])C(=O)[*:2]; ξLeu(3ξ-OH) = CC(C)C(O)C(N)C(=O)O; ξPro(4ξ-Me) = CC1CNC(C(=O)O)C1; X10 = CCC(C)/C=C/C(=O)*; Aib = CC(C)(N)C(=O)O; X12 = CC(CN(C)C)N*; βAla = NCCC(=O)O
# How the values were obtained:
# Test in all cases: NCI tumour cell line growth inhibition, 48 h
# NCI-H226 lung = tested on: NCI-H226 lung
# BT-549 breast = tested on: BT-549 breast
# HOP-92 NSCLC = tested on: HOP-92 NSCLC
# NCI-H23 lung = tested on: NCI-H23 lung
# UACC-257 melanoma = tested on: UACC-257 melanoma
# HCT-116 colon = tested on: HCT-116 colon
# MDA-MB-231 breast = tested on: MDA-MB-231 breast
# HS 578T breast = tested on: HS 578T breast
# U251 CNS = tested on: U251 CNS
# NCI-H460 lung = tested on: NCI-H460 lung
# K-562 leukemia = tested on: K-562 leukemia
# T-47D breast = tested on: T-47D breast
# HL-60(TB) leukemia = tested on: HL-60(TB) leukemia
# SF-268 CNS = tested on: SF-268 CNS
# SF-539 CNS = tested on: SF-539 CNS
# SK-MEL-28 melanoma = tested on: SK-MEL-28 melanoma
# OVCAR-3 ovarian = tested on: OVCAR-3 ovarian
# RPMI-8226 leukemia = tested on: RPMI-8226 leukemia
# NCI/ADR-RES ovarian = tested on: NCI/ADR-RES ovarian
# IGROV1 ovarian = tested on: IGROV1 ovarian
# OVCAR-8 ovarian = tested on: OVCAR-8 ovarian
# SR leukemia = tested on: SR leukemia
# KM12 colon = tested on: KM12 colon
# SF-295 CNS = tested on: SF-295 CNS
# SNB-75 CNS = tested on: SNB-75 CNS
# SN12C renal = tested on: SN12C renal
# M14 melanoma = tested on: M14 melanoma
# HCC-2998 colon = tested on: HCC-2998 colon
# SK-MEL-2 melanoma = tested on: SK-MEL-2 melanoma
# OVCAR-4 ovarian = tested on: OVCAR-4 ovarian
# A549 NSCLC = tested on: A549 NSCLC
# SNB-19 CNS = tested on: SNB-19 CNS
# OVCAR-5 ovarian = tested on: OVCAR-5 ovarian
# SK-MEL-5 melanoma = tested on: SK-MEL-5 melanoma
# 786-0 renal = tested on: 786-0 renal
# MOLT-4 leukemia = tested on: MOLT-4 leukemia
# ACHN renal = tested on: ACHN renal
# PC-3 prostate = tested on: PC-3 prostate
# HOP-62 NSCLC = tested on: HOP-62 NSCLC
# DU-145 prostate = tested on: DU-145 prostate
# COLO 205 colon = tested on: COLO 205 colon
# MALME-3M melanoma = tested on: MALME-3M melanoma
# MDA-MB-435 = tested on: MDA-MB-435
# CCRF-CEM leukemia = tested on: CCRF-CEM leukemia
# UACC-62 melanoma = tested on: UACC-62 melanoma
# HT29 colon = tested on: HT29 colon
# LOX IMVI melanoma = tested on: LOX IMVI melanoma
# SW-620 colon = tested on: SW-620 colon
# CAKI-1 renal = tested on: CAKI-1 renal
# HCT-15 colon = tested on: HCT-15 colon
# UO-31 renal = tested on: UO-31 renal
# A498 renal = tested on: A498 renal
# NCI-H522 lung = tested on: NCI-H522 lung
# TK-10 renal = tested on: TK-10 renal
# MCF7 breast = tested on: MCF7 breast
# RXF 393 renal = tested on: RXF 393 renal
# EKVX NSCLC = tested on: EKVX NSCLC
structure (smiles),measurement,setting,value
CCC(=O)CC(O)CC(C)CC(NC(=O)C1CC(C)CN1C(=O)/C=C/C(C)CC)C(=O)NC(C(=O)NC(C)(C)C(=O)NC(CC(C)C)C(=O)NC(CC(C)C)C(=O)NC(C)(C)C(=O)NC(C)(C)C(=O)NCCC(=O)NC(C)CN(C)C)C(O)C(C)C (configuration not stated) (X10-[ξPro(4ξ-Me)][X11][ξLeu(3ξ-OH)][Aib]LL[Aib][Aib][βAla]-X12; configuration not given here),TGI,NCI-H226 lung,3620 nM
same,TGI,BT-549 breast,11300 nM
same,TGI,HOP-92 NSCLC,1090 nM
same,TGI,NCI-H23 lung,7700 nM
same,TGI,UACC-257 melanoma,17000 nM
Nc1nc(N)c2cc(Sc3ccc(Cl)cc3)ccc2n1,GI50,HCT-116 colon,327 nM
same,TGI,HCT-116 colon,1390 nM
same,GI50,NCI-H226 lung,9710 nM
same,TGI,NCI-H226 lung,23400 nM
same,GI50,MDA-MB-231 breast,1720 nM
same,TGI,MDA-MB-231 breast,4210 nM
same,GI50,HS 578T breast,1720 nM
same,TGI,HS 578T breast,12400 nM
same,GI50,U251 CNS,526 nM
same,TGI,U251 CNS,1990 nM
same,GI50,NCI-H460 lung,314 nM
same,TGI,NCI-H460 lung,11900 nM
same,GI50,K-562 leukemia,286 nM
same,TGI,K-562 leukemia,1860 nM
same,GI50,T-47D breast,1610 nM
same,TGI,T-47D breast,3330 nM
same,GI50,HL-60(TB) leukemia,600 nM
same,TGI,HL-60(TB) leukemia,2470 nM
same,GI50,SF-268 CNS,898 nM
same,TGI,SF-268 CNS,18000 nM
same,GI50,SF-539 CNS,3100 nM
same,TGI,SF-539 CNS,22300 nM
same,GI50,SK-MEL-28 melanoma,2680 nM
same,TGI,SK-MEL-28 melanoma,8050 nM
same,GI50,OVCAR-3 ovarian,3500 nM
same,TGI,OVCAR-3 ovarian,12600 nM
same,GI50,RPMI-8226 leukemia,1950 nM
same,TGI,RPMI-8226 leukemia,4990 nM
same,GI50,NCI/ADR-RES ovarian,793 nM
same,TGI,NCI/ADR-RES ovarian,16100 nM
same,GI50,IGROV1 ovarian,874 nM
same,TGI,IGROV1 ovarian,18700 nM
same,GI50,OVCAR-8 ovarian,961 nM
same,TGI,OVCAR-8 ovarian,2610 nM
same,GI50,SR leukemia,1370 nM
same,TGI,SR leukemia,5430 nM
same,GI50,KM12 colon,1340 nM
same,TGI,KM12 colon,4320 nM
same,GI50,SF-295 CNS,630 nM
same,TGI,SF-295 CNS,15200 nM
same,GI50,SNB-75 CNS,5890 nM
same,TGI,SNB-75 CNS,18700 nM
same,GI50,SN12C renal,2910 nM
same,TGI,SN12C renal,17900 nM
same,GI50,M14 melanoma,535 nM
same,TGI,M14 melanoma,1980 nM
same,GI50,HCC-2998 colon,1080 nM
same,TGI,HCC-2998 colon,2430 nM
same,GI50,SK-MEL-2 melanoma,2230 nM
same,TGI,SK-MEL-2 melanoma,5530 nM
same,GI50,OVCAR-4 ovarian,3910 nM
same,TGI,OVCAR-4 ovarian,18900 nM
same,GI50,A549 NSCLC,254 nM
same,TGI,A549 NSCLC,12900 nM
same,GI50,SNB-19 CNS,3710 nM
same,TGI,SNB-19 CNS,20800 nM
same,GI50,OVCAR-5 ovarian,2050 nM
same,TGI,OVCAR-5 ovarian,17500 nM
same,GI50,SK-MEL-5 melanoma,762 nM
same,TGI,SK-MEL-5 melanoma,2060 nM
same,GI50,786-0 renal,582 nM
same,TGI,786-0 renal,2040 nM
same,GI50,MOLT-4 leukemia,1900 nM
same,TGI,MOLT-4 leukemia,11100 nM
same,GI50,ACHN renal,666 nM
same,TGI,ACHN renal,16400 nM
same,GI50,PC-3 prostate,592 nM
same,TGI,PC-3 prostate,13800 nM
same,GI50,HOP-62 NSCLC,1490 nM
same,TGI,HOP-62 NSCLC,14900 nM
same,GI50,DU-145 prostate,1900 nM
same,TGI,DU-145 prostate,14600 nM
same,GI50,HOP-92 NSCLC,1510 nM
same,TGI,HOP-92 NSCLC,7000 nM
same,GI50,COLO 205 colon,1280 nM
same,TGI,COLO 205 colon,2830 nM
same,GI50,MALME-3M melanoma,1250 nM
same,TGI,MALME-3M melanoma,3270 nM
same,GI50,MDA-MB-435,403 nM
same,TGI,MDA-MB-435,1910 nM
same,GI50,CCRF-CEM leukemia,815 nM
same,TGI,CCRF-CEM leukemia,17400 nM
same,GI50,UACC-62 melanoma,795 nM
same,TGI,UACC-62 melanoma,14500 nM
same,GI50,HT29 colon,516 nM
same,TGI,HT29 colon,2400 nM
same,GI50,LOX IMVI melanoma,350 nM
same,TGI,LOX IMVI melanoma,4070 nM
same,GI50,SW-620 colon,306 nM
same,TGI,SW-620 colon,1630 nM
same,GI50,CAKI-1 renal,3250 nM
same,TGI,CAKI-1 renal,16100 nM
same,GI50,HCT-15 colon,491 nM
same,TGI,HCT-15 colon,14900 nM
same,GI50,NCI-H23 lung,1380 nM
same,TGI,NCI-H23 lung,15600 nM
same,GI50,UO-31 renal,2430 nM
same,TGI,UO-31 renal,16100 nM
same,GI50,A498 renal,3190 nM
same,TGI,A498 renal,19000 nM
same,GI50,NCI-H522 lung,1350 nM
same,TGI,NCI-H522 lung,3870 nM
same,GI50,UACC-257 melanoma,1410 nM
same,TGI,UACC-257 melanoma,5720 nM
same,GI50,TK-10 renal,4910 nM
same,TGI,TK-10 renal,17200 nM
same,GI50,MCF7 breast,1160 nM
same,TGI,MCF7 breast,2790 nM
same,GI50,RXF 393 renal,1030 nM
same,TGI,RXF 393 renal,7780 nM
same,GI50,EKVX NSCLC,1660 nM
same,TGI,EKVX NSCLC,17600 nM
